Patent US9169254B2, “Spiroimidazolone derivative” (Chugai Seiyaku Kabushiki Kaisha, priority 2009, dated 2015)

target: T1, human PTH1 receptor (Homo sapiens, UniProt Q03431); assay: In vitro cAMP signal activity in HKRK-B7 cells (LLC-PK1 cells overexpressing the human PTH1 receptor); type: cell-based; conditions: HKRK-B7 cells; compound at 1×10^−3 M; cAMP produced as percentage of that produced by hPTH(1-34) at 100 nM
T1 sequence (Q03431 27-593): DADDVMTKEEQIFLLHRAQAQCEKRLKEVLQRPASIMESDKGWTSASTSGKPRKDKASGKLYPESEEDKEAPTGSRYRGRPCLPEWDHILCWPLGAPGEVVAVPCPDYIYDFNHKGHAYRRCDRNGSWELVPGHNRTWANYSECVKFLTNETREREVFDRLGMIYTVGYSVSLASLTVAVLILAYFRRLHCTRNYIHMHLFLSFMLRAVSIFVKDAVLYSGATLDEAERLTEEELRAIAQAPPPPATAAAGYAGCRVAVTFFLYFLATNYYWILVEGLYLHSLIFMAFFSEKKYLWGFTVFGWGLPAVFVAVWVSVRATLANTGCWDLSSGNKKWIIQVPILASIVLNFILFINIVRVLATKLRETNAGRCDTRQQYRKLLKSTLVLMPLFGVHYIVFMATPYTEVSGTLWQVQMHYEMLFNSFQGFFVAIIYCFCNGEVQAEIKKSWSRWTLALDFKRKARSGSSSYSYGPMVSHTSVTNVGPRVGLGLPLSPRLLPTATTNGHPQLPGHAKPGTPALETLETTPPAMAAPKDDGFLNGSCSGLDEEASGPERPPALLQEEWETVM

SMILES | cAMP production activity (%)
Cc1cc(C(=O)N2CCN(C)CC2)cc(C)c1/C=C/S(=O)(=O)N1CCC2(CC1)N=C(C1CCC(CCC(F)(F)F)CC1)NC2=O (centres unmarked) [Compound 991, 8-{(E)-2-[2,6-dimethyl-4-(4-methyl-piperazine-1-carbonyl)-phenyl]-ethenesulfonyl}-2-[4-(3,3,3-trifluoro-propyl)-cyclohexyl]-1,3,8-triaza-spiro[4.5]dec-1-en-4-one] | 64%
CC(=O)N(C)Cc1cc(C)c(CCS(=O)(=O)N2CCC3(CC2)N=C(C2CCC(C)CC2)NC3=O)c(C)c1 (centres unmarked) [Compound 785, N-(3,5-dimethyl-4-{2-[2-(4-methyl-cyclohexyl)-4-oxo-1,3,8-triaza-spiro[4.5]dec-1-ene-8-sulfonyl]-ethyl}-benzyl)-N-methyl-acetamide] | 92%
CCCCCCC(CCC)CCC1=NC2(CCN([S@TB18](=O)(=O)/C=C/c3c(C)cc(N(C)C(N)=O)cc3C)CC2)C(=O)N1 (centres unmarked) [Compound 1126, 1-(3,5-dimethyl-4-{(E)-2-[4-oxo-2-(3-propyl-nonyl)-1,3,8-triaza-spiro[4.5]dec-1-ene-8-sulfonyl]-vinyl}-phenyl)-1-methyl-urea] | 106%
CC(C)COC(=O)Nc1ccc(CCS(=O)(=O)N2CCC3(CC2)N=C(C2CCCCC2)NC3=O)c(C(F)(F)F)c1 [Compound 661, {4-[2-(2-cyclohexyl-4-oxo-1,3,8-triaza-spiro[4.5]dec-1-ene-8-sulfonyl)-ethyl]-3-trifluoromethyl-phenyl}-carbamic acid isobutyl ester] | 45%
O=C1NC(C2CCCCC2)=NC12CCN(S(=O)(=O)c1ccc(Br)s1)CC2 [Compound 65, 8-(5-bromo-thiophene-2-sulfonyl)-2-cyclohexyl-1,3,8-triaza-spiro[4.5]dec-1-en-4-one] | 65%
Cc1cc(C(=O)N2C[C@@H](C)O[C@@H](C)C2)ccc1CCS(=O)(=O)N1CCC2(CC1)N=C(c1cccc(OC(F)(F)F)c1)NC2=O [Compound 666, 8-{2-[4-((2R,6S)-2,6-dimethyl-morpholine-4-carbonyl)-2-methyl-phenyl]-ethanesulfonyl}-2-(3-trifluoromethoxy-phenyl)-1,3,8-triaza-spiro[4.5]dec-1-en-4-one] | 51%
CC(=O)Nc1ccc(CCS(=O)(=O)N2CCC3(CC2)N=C(C2CCC(CC(F)F)CC2)NC3=O)c(C)c1 (centres unmarked) [Compound 1060, N-[4-(2-{2-[4-(2,2-Difluoro-ethyl)-cyclohexyl]-4-oxo-1,3,8-triaza-spiro[4.5]dec-1-ene-8-sulfonyl}-ethyl)-3-methyl-phenyl]-acetamide] | 58%
O=C1NC(CCc2ccccc2)=NC12CCN(S(=O)(=O)c1cccc(Cl)c1)CC2 [Compound 29, 8-(3-chloro-benzenesulfonyl)-2-phenethyl-1,3,8-triaza-spiro[4.5]dec-1-en-4-one] | 28%
CCCCCCCCCC1=NC2(CCN(S(=O)(=O)CCc3ccc(N4C(=O)CNC4=O)cc3C)CC2)C(=O)N1 [Compound 790, 3-{3-methyl-4-[2-(2-nonyl-4-oxo-1,3,8-triaza-spiro[4.5]dec-1-ene-8-sulfonyl)-ethyl]-phenyl}-imidazolidine-2,4-dione] | 88%
Cc1cc(C(=O)N2CCC(O)CC2)cc(C)c1/C=C/[S@TB4](=O)(=O)N1CCC2(CC1)N=C(c1ccc(F)c(OC(F)(F)F)c1)NC2=O [Compound 1159, 2-(4-fluoro-3-trifluoromethoxy-phenyl)-8-{(E)-2-[4-(4-hydroxy-piperidine-1-carbonyl)-2,6-dimethyl-phenyl]-ethenesulfonyl}-1,3,8-triaza-spiro[4.5]dec-1-en-4-one] | 87%
O=C1NC(C2CCCCC2)=NC12CCN(S(=O)(=O)CCc1cccc3ncccc13)CC2 [Compound 648, 2-cyclohexyl-8-(2-quinolin-5-yl-ethanesulfonyl)-1,3,8-triaza-spiro[4.5]dec-1-en-4-one] | 61%
CN(C)C(=O)NCc1ccc(/C=C/S(=O)(=O)N2CCC3(CC2)N=C(C2CCCCC2)NC3=O)cc1 [Compound 565, 3-{4-[(E)-2-(2-cyclohexyl-4-oxo-1,3,8-triaza-spiro[4.5]dec-1-ene-8-sulfonyl)-vinyl]-benzyl}-1,1-dimethyl-urea] | 45%
CCCCc1ccc2cc1OCCCCCOCCN(C)C(=O)c1ccc(c(C)c1)CCS(=O)(=O)N1CCC3(CC1)N=C2NC3=O [Compound 1434] | 54%
Cc1cc(N(C(N)=O)C(C)C)cc(C)c1CCS(=O)(=O)N1CCC2(CC1)N=C(C1CCC(C)CC1)NC2=O (centres unmarked) [Compound 828, 1-(3,5-dimethyl-4-{2-[2-(4-methyl-cyclohexyl)-4-oxo-1,3,8-triaza-spiro[4.5]dec-1-ene-8-sulfonyl]-ethyl}-phenyl)-1-isopropyl-urea] | 92%
Cc1cc(C(=O)N2CC(O)C2)cc(C)c1CCS(=O)(=O)N1CCC2(CC1)N=C(c1cccc(OC(F)(F)F)c1)NC2=O [Compound 965, 8-{2-[4-(3-hydroxy-azetidine-1-carbonyl)-2,6-dimethyl-phenyl]-ethanesulfonyl}-2-(3-trifluoromethoxy-phenyl)-1,3,8-triaza-spiro[4.5]dec-1-en-4-one] | 115%
Cc1cc(C(=O)N2CC[C@@H](O)C2)cc(C)c1/C=C/S(=O)(=O)N1CCC2(CC1)N=C(c1cccc(OC(F)(F)F)c1)NC2=O [Compound 401, 8-{(E)-2-[4-((R)-3-hydroxy-pyrrolidine-1-carbonyl)-2,6-dimethyl-phenyl]-ethenesulfonyl}-2-(3-trifluoromethoxy-phenyl)-1,3,8-triaza-spiro[4.5]dec-1-en-4-one] | 83%
O=C(NCCc1ccccc1)N1CCCC(C2=NC3(CCN(S(=O)(=O)CCc4cccc5ccccc45)CC3)C(=O)N2)C1 (centres unmarked) [Compound 455, 3-[8-(2-naphthalen-1-yl-ethanesulfonyl)-4-oxo-1,3,8-triaza-spiro[4.5]dec-1-en-2-yl]-piperidine-1-carboxylic acid phenethyl-amide] | 31%
Cc1ccc(NCCO)cc1CCS(=O)(=O)N1CCC2(CC1)N=C(C1CCCCC1)NC2=O [Compound 275, 2-cyclohexyl-8-{2-[5-(2-hydroxy-ethylamino)-2-methyl-phenyl]-ethanesulfonyl}-1,3,8-triaza-spiro[4.5]dec-1-en-4-one] | 72%
O=C(CNc1ccc(/C=C/S(=O)(=O)N2CCC3(CC2)N=C(C2CCCCC2)NC3=O)c(C(F)(F)F)c1)NCCO [Compound 494, 2-{4-[(E)-2-(2-cyclohexyl-4-oxo-1,3,8-triaza-spiro[4.5]dec-1-ene-8-sulfonyl)-vinyl]-3-trifluoromethyl-phenylamino}-N-(2-hydroxy-ethyl)-acetamide] | 66%
O=C1NC(C2CCC(CCC(F)(F)F)CC2)=NC12CCN(S(=O)(=O)/C=C/c1cccc3c1ccn3CCOC[C@H](O)[C@@H](O)CO)CC2 (stereo partly drawn) [Compound 706, 2-[4-(3,3,3-trifluoro-propyl)-cyclohexyl]-8-((E)-2-{1-[2-((2S,3S)-2,3,4-trihydroxy-butoxy)-ethyl]-1H-indol-4-yl}-ethenesulfonyl)-1,3,8-triaza-spiro[4.5]dec-1-en-4-one] | 90%
